We go through two compounds from ChEMBL document CHEMBL1121498, “Conformationally restricted phenothiazine neuroleptics. 1. 3-(Dimethylamino)-1,2,3,4-tetrahydroazepino[3,2,1-kl]phenothiazine” (J Med Chem, 1980).

Experiment [1] deals with Dopamine receptor. In words: (§1) Compound was tested for inhibition of [3H]spiperone binding in membrane preparations obtained from rat corpus striatum.
For experiment [2], the system named is Rattus norvegicus. In words: Compound was evaluated for its ability to stimulate the synthesis of homovanillic acid (HVA) in rat in vivo. Type of experiment: functional.
Experiment [3] is filed under the species Rattus norvegicus. The experiment is described as follows: Percentage increase in rat corpus striatal HVA synthesis. Type of experiment: functional.
For experiment [4], the target named is Dopamine receptor (Bos taurus, UniProt Q95136+P20288).
The species named for experiment [5] is Rattus norvegicus. The description is as §1. Type of experiment: functional.
Experiment [6] is described as follows: Compound was tested for inhibition of [3H]spiperone binding in membrane preparations obtained from calf caudate. Also noted: species or system Bos taurus.

With `CN(C)CCCN1c2ccccc2Sc2ccccc21` [PROMAZINE], the IC50 (commonly the concentration at which inhibition is half-maximal) at Dopamine receptor [1] was determined as 1040 nM; against Dopamine receptor [4] it was 130 nM. Further, the ED50 (usually the dose that gives a 50% effect, or the effect in half of the subjects) in the experiment with Rattus norvegicus [2] came out at 200 µmol/kg. Further, in the experiment filed under Rattus norvegicus [3], the Increase came to 250%.

For the compound `CN(C)C1CCN2c3ccccc3Sc3cccc(c32)C1` (configuration not stated), the IC50 turned out to be 2150 nM in the experiment listed under Rattus norvegicus [5] and 2400 nM in experiment [6]. In addition, in the experiment listed under Rattus norvegicus [3], the Increase is 24%.
